From US4163799A, “Psychostimulant compounds” (Union Chimique Continentale U.C.C., priority 1975, dated 1979)
Counter-ions that a name gives are not always drawn.

Assays:
[1] = Determination of acute toxicity in the mouse (LD50, Behrens and Karber method); set-up: species or system mouse (male, Swiss NMRI); conditions: in vivo
Experimental: (§1) All the experiments described below were carried out on male rats weighing between 170 and 220 g (Wistar AF strain) and male mice weighing between 18 and 23 g (Swiss NMRI strain), unless indicated to the contrary. All the experiments were conducted in a constant-temperature laboratory (22±1° C.). […] Unless indicated to the contrary 10 animals per batch were always used.

[2] = Motor activity in the rat (actimeter); format: in vivo, rat (male, 90-110 g)
Experimental: as §1
The motor activity was determined on male rats weighing between 90 and 110 g with the aid of the actimeter, the same instrument cited with regard to motor activity in the mouse.
The NaAHDH doses were given immediately before the actimeter was switched on.

[3] = Anticataleptic activity test (prochlorperazine); format: in vivo, rat (male, Wistar AF); conditions: 8 or 32 mg/kg ip or orally; prochlorperazine 8 mg/kg ip; homolateral paws, buddha, rocking plate tests
Experimental: as §1

[4] = Potentialization of apomorphine; format: in vivo; conditions: compared with caffeine; no method described

SMILES: CC(O)CC(c1ccccc1)C(C(=O)O)c1ccccc1 (stereo not shown) [NaAHDH, Sodium Salt of 5-Hydroxy-2,3-Diphenyl-Hexanoic Acid]
- LD50 ([1]; ip, intraperitoneally): 175 mg/kg
- LD50 ([1]; po, administered orally): 998 mg/kg
- number of beams interrupted, 30 + 5 min ([2]; 16 mg/kg ip): 39
- number of beams interrupted, 30 + 10 min ([2]; 16 mg/kg ip): 67
- number of beams interrupted, 30 + 15 min ([2]; 16 mg/kg ip): 104
- number of beams interrupted, 30 + 20 min ([2]; 16 mg/kg ip): 133
- number of beams interrupted, 30 + 25 min ([2]; 16 mg/kg ip): 156
- number of beams interrupted, 30 + 30 min ([2]; 16 mg/kg ip): 182 ± 39
- number of beams interrupted, 30 min ([2]; 16 mg/kg ip): 461 ± 32
- number of beams interrupted, 30 + 5 min ([2]; 32 mg/kg ip): 88
- number of beams interrupted, 30 + 10 min ([2]; 32 mg/kg ip): 191
- number of beams interrupted, 30 + 15 min ([2]; 32 mg/kg ip): 274
- number of beams interrupted, 30 + 20 min ([2]; 32 mg/kg ip): 372
- number of beams interrupted, 30 + 25 min ([2]; 32 mg/kg ip): 452
- number of beams interrupted, 30 + 30 min ([2]; 32 mg/kg ip): 531 ± 84
- number of beams interrupted, 30 min ([2]; 32 mg/kg ip): 631 ± 49
- number of beams interrupted, 30 + 5 min ([2]; 32 mg/kg vo (orally)): 31
- number of beams interrupted, 30 + 10 min ([2]; 32 mg/kg vo (orally)): 69
- number of beams interrupted, 30 + 15 min ([2]; 32 mg/kg vo (orally)): 100
- number of beams interrupted, 30 + 20 min ([2]; 32 mg/kg vo (orally)): 118
- number of beams interrupted, 30 + 25 min ([2]; 32 mg/kg vo (orally)): 131
- number of beams interrupted, 30 + 30 min ([2]; 32 mg/kg vo (orally)): 164 ± 58
- number of beams interrupted, 30 min ([2]; 32 mg/kg vo (orally)): 433 ± 43
- number of beams interrupted, 30 + 5 min ([2]; 64 mg/kg vo (orally)): 58
- number of beams interrupted, 30 + 10 min ([2]; 64 mg/kg vo (orally)): 124
- number of beams interrupted, 30 + 15 min ([2]; 64 mg/kg vo (orally)): 197
- number of beams interrupted, 30 + 20 min ([2]; 64 mg/kg vo (orally)): 265
- number of beams interrupted, 30 + 25 min ([2]; 64 mg/kg vo (orally)): 325
- number of beams interrupted, 30 + 30 min ([2]; 64 mg/kg vo (orally)): 396 ± 62
- number of beams interrupted, 30 min ([2]; 64 mg/kg vo (orally)): 517 ± 25
- motor activity ([2]; 16 and 32 mg/kg intraperitoneally): increase in motor activity
- motor activity ([2]; 32 and 64 mg/kg orally): increase in motor activity
- modification of cataleptic condition [3]: no modification to the cataleptic condition
- potentialization of apomorphine [4]: does not potentialize apomorphine
